Assay results published in paper PMC11241344, “TriplEP-CPP: Algorithm for Predicting the Properties of Peptide Sequences” (International Journal of Molecular Sciences, 2024).
Peptide text beside a SMILES is read from it.

Key:
[1] = test system: human HaCaT keratinocyte cells; assay type: cell-based; conditions: MTT test, peptide C=0,1 mM (100 µM), 24 h incubation at 37 °C, 5% CO2, absorbance 570/690 nm, mean ± standard deviation (n = 5)
Experimental: (§1) Since the peptides predicted as CPPs are intended to be used as safe intracellular delivery systems, it is necessary to evaluate the degree of their toxicity to mammalian cells. For this purpose, the compounds investigated were added to human HaCaT keratinocyte cells and McCoy mouse fibroblast cells at a final concentration of 100 μM.
(§2) One of the most important criteria in the search for new penetrating peptides is to ensure the safety of their further use and to assess potential problems and risks. […] Therefore, we incubated human HaCaT keratinocyte and McCoy mouse fibroblast cells with our synthesized compounds at a final concentration of 100 μM for 24 h at 37 °C. […] The use of a fluorescent tag makes it possible to observe the penetration of the peptides as well as their distribution and localization within the cells. For this purpose, the synthesized compounds were conjugated with the fluorescent tag NBD-F and incubated with cells at a final concentration of […] for 4 h at 37 °C.
(§3) McCoy mouse fibroblast cell line (ATCC® CRL-1696™) was grown in a CO2 incubator at 37 °C, 5% CO2 in DMEM medium supplemented with 10% FBS and gentamicin (10 mkg/mL). Human immortalized keratinocyte line HaCaT cells (ATCC® PCS-200-011™) were grown in CO2-incubator at 37 °C, 5% CO2 in RPMI medium supplemented with 10% FBS and gentamicin (10 mkg/mL).
(§4) The cytotoxicity of the peptides was assessed using the MTT-test (3-(4,5-dimethylthiazol-2-yl)2,5-diphenyltetrazolium bromide) according to a standard protocol. McCoy, HaCaT cells were seeded in 96-well plates to a density of 5 × 10^3 cells and 3 × 10^3 cells in each well and incubated at 37 °C, 5% CO2 for 24 h. After 24 h incubation, the cells were washed with Hanks’ balanced salt solution (HBSS). The test peptides were tested at a final concentration of 100 µM in five replicates. Fresh culture medium without added peptides was used as a negative control. […] After adding 100 µL of the test compound to the cells, the samples were incubated at 37 °C, 5% CO2 for 24 h. Next, 10 µL of MTT working solution was added to each well, followed by incubating the cells for 4 h and adding 100 µL of solubilizing buffer to dissolve the formazan crystals. The amount of MTT was measured spectrophotometrically at 570 nm and 690 nm using a Multiskan Ascent microplate photometer (ThermoScientific, Waltham, MA, USA).
(§5) Results were processed using Microsoft Office Excel. During the evaluation of cell viability in the first step, the difference between the values obtained at 570 nm and 690 nm was found for each group of measurements. Then, dose-dependent curves were plotted for each cell line. […] The next step was to recalculate the values as a percentage of the positive control and obtain the mean values and standard deviation for each peptide.

[2] = test system: McCoy mouse fibroblast cells; assay type: cell-based; conditions: MTT test, peptide C=0,1 mM (100 µM), 24 h incubation at 37 °C, 5% CO2, absorbance 570/690 nm, mean ± standard deviation (n = 5)
Experimental: as §1, §2, §3, §4, §5

SMILES	Percentage of Viable Cells, HaCaT [1] [%]	Percentage of Viable Cells, McCoy [2] [%]
CC(C)C[C@H](NC(=O)[C@H](CCC(N)=O)NC(=O)[C@H](Cc1c[nH]c2ccccc12)NC(=O)[C@H](Cc1c[nH]cn1)NC(=O)[C@H](CCCCN)NC(=O)[C@H](CCCCN)NC(=O)[C@H](CCC(N)=O)NC(=O)[C@H](CCCNC(=N)N)NC(=O)[C@H](Cc1ccc(O)cc1)NC(=O)[C@H](Cc1c[nH]cn1)NC(=O)[C@H](Cc1ccccc1)NC(=O)[C@H](Cc1ccc(O)cc1)NC(=O)[C@H](CCCNC(=N)N)NC(=O)[C@@H](N)CS)C(=O)O [CpHI4] (H-CRYFHYRQKKHWQL-OH)	95.3 ± 3.5	95.5 ± 3.2
C[C@H](NC(=O)[C@H](C)NC(=O)[C@H](CCCCN)NC(=O)[C@@H](N)CO)C(=O)N[C@@H](CC(=O)O)C(=O)N[C@@H](CCC(=O)O)C(=O)N[C@@H](CO)C(=O)N[C@@H](CCC(=O)O)C(=O)N[C@@H](CCCNC(=N)N)C(=O)O [CpHM5] (H-SKAADESER-OH)	93.8 ± 2.4	96.3 ± 3.4
CC[C@H](C)[C@H](NC(=O)CN)C(=O)NCC(=O)N[C@@H](C)C(=O)N[C@H](C(=O)N[C@@H](CC(C)C)C(=O)N[C@@H](CCCCN)C(=O)N[C@H](C(=O)N[C@@H](CC(C)C)C(=O)N[C@H](C(=O)N[C@H](C(=O)NCC(=O)N[C@@H](CC(C)C)C(=O)N1CCC[C@H]1C(=O)N[C@@H](C)C(=O)N[C@@H](CC(C)C)C(=O)N[C@H](C(=O)N[C@@H](CO)C(=O)N[C@@H](Cc1c[nH]c2ccccc12)C(=O)N[C@H](C(=O)N[C@@H](CCCCN)C(=O)N[C@@H](CCCNC(=N)N)C(=O)N[C@@H](CCCCN)C(=O)N[C@@H](CCCNC(=N)N)C(=O)N[C@@H](CCC(N)=O)C(=O)N[C@@H](CCC(N)=O)C(N)=O)[C@@H](C)CC)[C@@H](C)CC)[C@@H](C)O)[C@@H](C)O)C(C)C)C(C)C [melittin, reference compound]	0.1 ± 0.1	0.0
CC[C@H](C)[C@H](NC(=O)[C@H](C)N)C(=O)N[C@@H](CCCNC(=N)N)C(=O)N[C@@H](CC(N)=O)C(=O)N[C@@H](CC(=O)O)C(=O)N[C@@H](CCC(=O)O)C(=O)N[C@@H](CCC(=O)O)C(=O)N[C@@H](CC(C)C)C(=O)N[C@@H](CC(N)=O)C(=O)N[C@@H](CCCCN)C(=O)O [CpHM6] (H-AIRNDEELNK-OH)	92.2 ± 2.9	95.3 ± 3.4
CSCC[C@H](NC(=O)[C@H](Cc1c[nH]cn1)NC(=O)[C@H](Cc1c[nH]c2ccccc12)NC(=O)[C@@H](NC(=O)[C@@H](N)CCCCN)[C@@H](C)O)C(=O)N[C@H](C(=O)N[C@@H](Cc1ccc(O)cc1)C(=O)N1CCC[C@H]1C(=O)NCC(=O)NCC(=O)N[C@@H](Cc1ccc(O)cc1)C(=O)N[C@@H](CC(=O)O)C(=O)N[C@@H](Cc1c[nH]cn1)C(=O)N[C@H](C(=O)N[C@@H](CCCNC(=N)N)C(=O)NCC(=O)O)[C@@H](C)O)C(C)C [CpOH10] (H-KTWHMVYPGGYDHTRG-OH)	94.6 ± 3.3	94.4 ± 3.1
CC(C)[C@H](NC(=O)[C@@H](N)[C@@H](C)O)C(=O)N[C@@H](C)C(=O)N[C@@H](CC(N)=O)C(=O)N[C@@H](Cc1ccccc1)C(=O)N[C@@H](CCCCN)C(=O)N[C@H](C(=O)N[C@@H](CC(N)=O)C(=O)N[C@@H](CO)C(=O)N[C@@H](C)C(=O)N[C@@H](C)C(=O)N1CCC[C@H]1C(=O)N1CCC[C@H]1C(=O)N[C@@H](C)C(=O)N[C@@H](C)C(=O)N[C@@H](CCC(=O)O)C(=O)N1CCC[C@H]1C(=O)N1CCC[C@H]1C(=O)N[C@@H](CCCNC(=N)N)C(=O)O)[C@@H](C)O [CpRE13] (H-TVANFKTNSAAPPAAEPPR-OH)	90.6 ± 3.6	89.7 ± 3.3
CC[C@H](C)[C@H](NC(=O)[C@H](CCC(N)=O)NC(=O)[C@H](Cc1c[nH]c2ccccc12)NC(=O)[C@H](CCC(N)=O)NC(=O)[C@H](Cc1ccc(O)cc1)NC(=O)[C@@H](N)CO)C(=O)N[C@@H](Cc1ccccc1)C(=O)N[C@@H](Cc1ccc(O)cc1)C(=O)N[C@@H](CCCNC(=N)N)C(=O)N[C@@H](CO)C(=O)N[C@@H](CC(C)C)C(=O)N[C@@H](CC(=O)O)C(=O)NCC(=O)N[C@@H](CO)C(=O)NCC(=O)N[C@@H](C)C(=O)N[C@@H](CCCCN)C(=O)N[C@@H](CCC(=O)O)C(=O)O [CpRE12] (H-SYQWQIFYRSLDGSGAKE-OH)	84.4 ± 4.0	87.6 ± 4.6
